Tests used:
H1299-7 xenografts = experiment: H1299-7 xenograft in BALB/c nude mice; type: in vivo; settings: single agent: 6 MBq LuTate single iv dose, or nedisertib 150 mg/kg oral for 6 days
Protocol: (§1) All animal experiments were performed with approval from the Peter MacCallum Cancer Centre Animal Experimentation Ethics Committee, and in accordance with the Australian code for the care and use of animals for scientific purposes (8th Edition, 2013). Four- to seven-week-old female BALB/c nude mice were sourced from Animal Resources Centre (Canning Vale, Western Australia). 3 × 10^6 AR42J or 5 × 10^6 H1299-7 cells were subcutaneously implanted onto the right flank of the mice in a 50% Matrigel (Corning):PBS mixture. Mice were weighed, and tumours measured twice weekly using electronic calipers. Tumour volume (mm^3) was calculated as length × width × height × π/6. Once tumours reached a volume of 50-300 mm^3, the animals were randomised into groups of 9-10 mice and injected intravenously with a single dose (5-10 MBq in 100-200 μL) LuTate or vehicle (saline). At 24 h post LuTate injection mice began once-daily oral dosing of DNA-PK inhibitor nedisertib (150 mg/kg) or vehicle (10% DMSO, 40% PEG300, 5% Tween-80, 45% saline) in a volume of 10 ml/kg for 6 consecutive days. Mice were monitored 2-3 times weekly for overall weight as an indicator of murine health and tumour volume measured. Mice were euthanised once the tumour volume exceeded 1200 mm^3.

unselected tumours = settings: phase I clinical trial, cited from earlier work
Excerpt: To this end, several clinical trials are evaluating the tolerability and efficacy of nedisertib in humans. […] Current clinical trials are focusing on the combination of nedisertib and radiotherapy in the setting of pancreatic cancers (NCT04172532) and glioblastoma and gliosarcoma (NCT04555577), as well as others. Additionally, there are two studies investigating the combination ...

SKNBE-2 cells = experiment: Cell growth assay, Day 14; type: cell-based, human
Protocol: (§2) For LuTate treatment, aliquots of 4 × 10^6 cells were collected and resuspended in 500 μl DMEM + 1% FCS, and treated with either 0, 5, 10 or 20 MBq/mL LuTate for 4 h in suspension at 37°C and 5% CO2 with mixing every hour. Cells were resuspended in 4 mL full media and plated in 6 well plates at a concentration of 0.5 × 10^6 cells per well. For drug combination experiments, 24 h post LuTate treatment, cells were treated with either 0.5 μM or 1 μM of either AZD-7648 or nedisertib.
(§3) Cell growth was tracked over a 14-day period. Cells were counted and replated at 0.2 × 10^6 cells per well on Days 2, 6 and 9, with a final count on Day 14. Because of the exponential growth or significant lethality of the various cultures, not all cells were necessarily re-seeded at each subculture interval. However, the cell growth assay data is corrected for the fraction of cells re-plated so the data is expressed for all conditions as though all cells were re-plated at each interval (illustrated in Supplementary Figure S1). The total number of cells is thus the theoretical total number of cells over time if all cells at each subculture interval were re-seeded at identical density, calculated by: […]
Cell growth was normalised to the appropriate control for each experiment. […]

H1299-7 DNA-PK KO cells = experiment: Cell growth assay over 14 days; type: cell-based, human
Protocol: (§4) Two gRNA (from the Brunello library, as determined in the MaGeCK count files) with the most significant enrichment or depletion for the genes to be validated, were pooled and nucleofected into H1299-7 Cas9 cells, using the Amaxa 4D nucleofector (Lonza), solution SF and program EW-127 (Lonza, optimised protocol for H1299 cells). Cells were nucleofected with 75 pmol of each gRNA in 20 μl (gRNA from Integrated DNA Technologies, sequences in supplementary Table 2). Efficiency of gene knockout was determined at 72 h post nucleofection through western blot or DNA sequencing. The resulting cell lines were H1299-7 Beta-Arrestin 2 knockout (KO), MVP KO, Artemis KO, and DNA-PK KO.
as §2, §3
(§5) Cell growth was normalised to the appropriate control for each experiment. For growth curves showing validation of the CRISPR result, results were graphed showing the alteration in cell population, as compared to control, over time (out to Day 14). For all other assays (combination experiments, and experiments using AR42J or SKNBE-2 cells), results are shown comparing cell population at the Day 14 timepoint. All assays were repeated as at least biological triplicates.

H1299-7 Artemis KO cells = experiment: Cell growth assay over 14 days; type: cell-based, human
Protocol: as §4, §2, §3, §5

[1] = system: H1299-7 Beta-Arrestin 2 KO cells; experiment: Cell growth assay over 14 days; type: cell-based, human
Protocol: as §4, §2, §3, §5

H1299-7 MVP KO cells [2] = experiment: Cell growth assay over 14 days; type: cell-based, human; settings: 5 MBq/mL LuTate
Protocol: as §4, §2, §3, §5

H1299-7 cells [3] = experiment: LuTate retention assay; type: cell-based, human; settings: H1299-7 control cells, 4 h treatment with 5 MBq/mL LuTate then 24 h in fresh medium, gamma counter, biological triplicates
Protocol: (§6) H1299-7, H1299-7 Cas9, MVP KO and Beta-Arrestin 2 KO cells were treated with either 0 or 5 MBq/mL LuTate using the same suspension protocol as for the growth experiments. After 4 h of treatment, cells were washed and triplicate aliquots collected for the 4 h timepoint, and the remaining cells plated in triplicate in 6 well plates for 24 h. For collection of samples, cells were spun down, washed twice, and resuspended in 500 μl PBS. All experiments were repeated as biological triplicates. Samples were stored at RT for 2-3 half-lives of LuTate (2-3 weeks), before being counted on the Captus 4000e gamma counter (Capintec). Percent LuTate retained by the cells was calculated as a percent of total activity added and averaged across the triplicate experiments.

[4] = system: H1299-7 Beta-Arrestin 2 KO cells; experiment: LuTate retention assay; type: cell-based, human; settings: 4 h treatment with 5 MBq/mL LuTate then 24 h in fresh medium, gamma counter, biological triplicates, p-value 0.01 vs control
Protocol: as §6

H1299-7 MVP KO cells [5] = experiment: LuTate retention assay; type: cell-based, human; settings: 5 MBq/mL LuTate for 4 h
Protocol: as §6

AR42J tumours = experiment: AR42J xenograft in BALB/c nude mice; type: in vivo, mouse
Protocol: as §1

H1299-7 cells [6] = experiment: Cell growth assay over 14 days, LuTate alone or with DNA-PK inhibitor; type: cell-based, human; settings: parental H1299-7 cells, 20 MBq/mL LuTate
Excerpt: Total Cells = Cell Number counted (1 well) × Number of Wells required
Number of Wells required going forward = Total Cells/0.2 × 10^6
Cell growth was normalised to the appropriate control for each experiment. […] All assays were repeated as at least biological triplicates.

In the case of COc1ccc([C@@H](O)c2cc(-c3ncnc4cc(N5CCOCC5)ccc34)c(F)cc2Cl)nn1 [nedisertib], the “impact on tumour growth or survival compared to untreated controls” value (H1299-7 xenografts) is listed as “no impact”, the efficacy in humans (unselected tumours; unselected tumours) is listed as “modest efficacy” and the tolerability in humans (unselected tumours) is listed as “well tolerated”.

With C[C@@H](O)[C@H](NC(=O)[C@@H]1CSSC[C@H](NC(=O)[C@@H](Cc2ccccc2)NC(=O)CN2CCN(CC(=O)[O-])CCN(CC(=O)[O-])CCN(CC(=O)[O-])CC2)C(=O)N[C@@H](Cc2ccc(O)cc2)C(=O)N[C@H](Cc2c[nH]c3ccccc23)C(=O)N[C@@H](CCCCN)C(=O)N[C@@H]([C@@H](C)O)C(=O)N1)C(=O)O.[177Lu+3] [LuTate, ^177Lutetium-DOTA-octreotate] the reduction of survival (SKNBE-2 cells; 20 MBq/mL LuTate alone, Day 14) was 50%, the “effect on cell survival” value (SKNBE-2 cells; LuTate doses of less than 10 MBq/mL) was “little effect” and the “times more sensitive to LuTate than control cells” value (H1299-7 DNA-PK KO cells; 5 MBq/mL LuTate, Day 14, p value 0.0017) was 10 times. For the same molecule, the “cell population by Day 14” value (H1299-7 DNA-PK KO cells; 10 MBq/mL LuTate) was “almost completely eradicated”, the “times more sensitive to LuTate than control cells” value (H1299-7 Artemis KO cells; 5 MBq/mL LuTate, Day 14, p value 0.0021) was 20 times and the “cell population by Day 14” value (H1299-7 Artemis KO cells; 10 MBq/mL LuTate) was “almost completely eradicated”. The “relative growth (% of control) at Day 14” value (H1299-7 Artemis KO cells; 10 MBq/mL LuTate for 4 h in suspension) was 0.0038%, the “relative growth (% of control) at Day 14” value (H1299-7 Artemis KO cells; 20 MBq/mL LuTate for 4 h) was 0.000296% and the “increase in relative growth versus parental H1299-7 cells” value ([1]; 5 MBq/mL LuTate) was “two-fold”. The “increase in survival versus parental H1299-7 cells” value ([1]; 10 MBq/mL LuTate, p-value 0.015) was “four-fold”, the “increase in relative growth versus parental H1299-7 cells” value (H1299-7 MVP KO cells [2]) was “two-fold” and the “LuTate retained (percent of total activity added)” value (H1299-7 cells [3]) was 32%. The “LuTate retained (percent of total activity added)” value [4] was 14.5%, the “amount of LuTate retained versus control cells” value (H1299-7 MVP KO cells [5]) was “no alteration” and the “tumour control post the end of treatment” value (AR42J tumours; AR42J tumours, 9 MBq LuTate single dose with or without 6 days nedisertib 150 mg/kg, 9-10 mice per group) was 10 days. The median survival (AR42J tumours; AR42J xenograft mice, 9 MBq LuTate with or without nedisertib 150 mg/kg for 6 days, vehicle control 10 days, p-value 0.0001) was 28 days, the “impact on tumour growth or survival compared to untreated controls” value (H1299-7 xenografts) was “no impact” and the “survival (expansion of parental cells)” value (H1299-7 cells [6]) was < 0.1%.

From PMC10526672, “A genome-wide CRISPR/Cas9 screen identifies DNA-PK as a sensitiser to ^177Lutetium-DOTA-octreotate radionuclide therapy” (Theranostics, 2023)
